Series [1] in a line: in vitro. The following applies: human.
In another series the target is Furin (Homo sapiens, UniProt P09958).
The nature of series [2]: Pharmacokinetic profile in mice, LC/MS. The format is in vivo, mouse. The following applies: Balb/C mice plasma, LC/MS, estimated from the 5 and 10 min samples. On the procedure: Pharmacokinetic profile of APLN-DM in mice
The aim of the current study was to evaluate pharmacokinetic properties of APLN-DM peptide administrated intravenously (IV) or intraperitoneously (IP) in Balb/C mice. […]
for the IP group). Development of quantification method was performed using liquid chromatography coupled to mass spectrometry (LC/MS).
Results: Samples obtained in vivo were analyzed according to quantification-developed method and the peptide was detectable until 15 minutes after administration. Analysis allowed determining that APLN-DM […]
All animals were divided to three groups of 27 animals, one of 12 animals and one of 3 animals (vehicle) and will receive the corresponding test item according to Table 1. Each animal was weighed and administered at the appropriate volume.
Concentration ROA Blood Individual animal numbers
Group No. Treatment Dose Collect
Table 11 - Group allocation
Development of analytic method
Standard range from 0.5 to 100 µM was prepared and analysed for each fragmented ion as previously […]
Standard curves obtained for each ion are represented in Figure 6.
Figure 8: Standard curves obtained by quantification of each fragmented ion The best linearity was obtained by quantifying the fragmented ion 785 (z=5).
Quantification of APLN-DM in samples
Summary of analytical method development:
Quantification method was performed according to previous work. In summary, samples were analysed with a LC-MS triple quadripole system (ESI QqQ). The chromatographic system was a UPLC activity (Waters) coupled to a mass spectrometer TSQ Quantum Ultra (Thermo) equipped with triple quadripole analyser and electrospray ionisation (ESI) system. The selected column was Kinetex F5 […] 50x2.1 mm (Phenomenex). The analysis was made by quantifying fragmented ion z=5 (m/z=785) in samples compared […]
quantitation was previously determined to be 0.5 µM. Samples were analysed after protein precipitation as […]
In vivo phase samples analysis
As the stability of peptide is low, even in frozen plasma, it was decided to re-run the in vivo phase for the highest dose and to use freshly prepared samples.
26 samples were used for analysis.
Only samples taken 5 and 10 minutes after peptide administration presented detectable concentrations (see
Table 9). While 15 min results were on the level of accuracy (linearity threshold values). At a later time […]
estimated based on the 5 and 10 min measurements.
Sample ID Area Calculated amount

Series [3] addresses T1, apelin receptor (Homo sapiens, UniProt P35414).
T1 sequence (P35414 1-380): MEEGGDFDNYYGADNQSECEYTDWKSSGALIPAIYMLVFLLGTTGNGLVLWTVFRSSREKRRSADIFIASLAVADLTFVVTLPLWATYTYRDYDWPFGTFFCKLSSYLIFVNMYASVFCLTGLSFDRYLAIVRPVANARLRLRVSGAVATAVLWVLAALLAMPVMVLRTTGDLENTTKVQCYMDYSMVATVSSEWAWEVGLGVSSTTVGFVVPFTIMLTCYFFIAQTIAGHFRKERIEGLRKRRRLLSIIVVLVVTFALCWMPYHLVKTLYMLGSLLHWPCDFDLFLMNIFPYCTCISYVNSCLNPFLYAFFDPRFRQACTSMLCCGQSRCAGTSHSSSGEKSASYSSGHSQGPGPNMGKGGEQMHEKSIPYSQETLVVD
As to the kind of experiment: Plasmon waveguide resonance (PWR) ligand binding. More on the design: expressed in transfected cells; host or cells: HEK cells overexpressing apelin receptor (membrane fragments). The following applies: HEK-apelin receptor cell membrane fragments on polylysine-treated sensor, 22 °C, n = 3. The source says:
Red arrows indicate the direction of vessel formation. […] All data are representative of three independent experiments. […] The two Furin cleavage sites are shown. […] (S–U) Plasmon waveguide resonance (PWR). […] Source data are available online for this figure.

A short description of the next series: in vivo. The following applies: both sexes, BALB/c, mouse, ip. On the procedure:
Pharmacological profile of APLN-DM peptide
Maximal Tolerated Dose (MTD) study of APLN -DM in mice
Six groups comprising six Balb/C mice per group (3 males and 3 females) were assigned to the study. In each gender, one control group (1 Male (M)/1 female (F)) received the reference solution (vehicle) and 5 […]
mg/kg (4M/4F), 2000 mg/kg (5M/5F) and 1500 mg/kg (6M/6F). APLN-DM peptide was administrated via intra-peritoneal (IP) single injection at day 1 followed by observation during 14 days. During the study, mortality, morbidity, general clinical signs and bod y weight were recorded. In the end of the study pathology and organ necropsy examination were performed. Thereby, APLN-DM peptide and vehicle were administered to mice according to Table-1 and their effects were analyzed according to Table-2.
Each test item dose was administrated to 3 female and 3 male mice. The administration was performed IP at a dose volume of 10 ml/kg. Dosing was performed according to Figure-1 and each increase in dose pending on the outcome of the previous dose (results of clinical signs). The lag time between the increasing doses was approximately 48h.
No. (n=) Mouse# Treatment Dose Level administration administratio […]
Table-1. Study design -1. […], […]
Study Day* Procedure Body Weight Clinical Mortality & Organ
Sign Morbidity observation
2-14 - Twice weekly Once -
15 Termination √ √ Gross pathology
Figure 1 - Decisional tree for successive dosing for MTD determination […]
At study termination, body weight (Figure 2 and Figure 3) and gross pathology abnormalities were analyzed in all animals. Main pathological finding were blood clots in intestine and chest cavity. Treatment-related clinical adverse side effects (purple tail, lethargy, decreased motor activity) were observed also in groups treated either with 200, 500, 1000 and 1500 mg/kg. The tail recovered a normal color after 1 hour in all dose groups. […]
abnormalities were detected in all male and female animals from these groups at the scheduled termination […]

A short description of series [4]: in vitro.
Another series relates to CT-26 tumors. The series is classed as in vivo. The following applies: Appendix Fig. S13. The source says:
Tumor growth, apoptosis, proliferation, and/or the angiogenic index of the developed tumors were first evaluated.
(A) Scheme and workflow of apelin-dm preclinic studies. […] (B–D) Error bars indicate s.e.m. center values indicate mean (Mann–Whitney U test). […] The percentage of relative staining intensity corresponding to CD31, Ki67, and BIM expression in CT-26 and MC-38 tumors of treated mice are shown in (I–N). Scale bar, 100 µm. Data represent mean ± s.e.m. of 3–4 independent experiments. P values were calculated with the Student t test in GraphPad. […] Quantification of tumor area (P) and vascularized area (Q) relative to control untreated CAMs (n = 3 CAM per group) assigned 100%. Data represent mean ± s.e.m. P values were calculated with the Student t test in GraphPad. […] (S, T) The average blood flow expressed in % relative to blood flow measured in […] (S) and MDA-MB231 (T) developed tumors. Data represent mean ± s.e.m. of 3–4 independent experiments. P values were calculated with the Student t test in GraphPad. Source data are available online for this figure.
Additional experiments involved injecting 1 × 10^6 control CT-26/MC-38/MDA-MB231 cells into BALB/c, C57BL/6, or nude mice, respectively. […] LASER Doppler imaging assessed total blood flow, with FlowR® Hemodynamics visualization used for analysis. Results were expressed as % relative to pre-treatment tumor blood flow.

For series [5], the target named is T1, apelin receptor. Kind of series: Radioligand binding assay. Details: purchased Euroscreen FAST-020B. The following applies: competition with [125I]-(Pyr1)-apelin-13, apelin receptor membrane extracts 2 μg protein/well, 96-well plates. How it is done: (§1) Scale bar, 50 µm. (C) Radioligand binding assay. […] Data are representative of three independent experiments and data shown as the mean ± s.e.m. […] The signals were sorted from high (red) to low (blue) intensity/phosphorylation. […] Source data are available online for this figure.
Dose-response curves were established and the estimated IC50 values were calculated for each compound.

Series [6] can be described thus: in vitro. The source holds these as a separate data set.
For series [7] the following is noted: pH 7.4.
The conditions of series [8]: liver microsomes. (Liver microsomes are a subcellular fraction often used to study metabolism.)
Another series concerns AKT and ERK. As to the kind of experiment: Phosphorylation of AKT and ERK in HUVEC, SMC, CT-26, HEK 293. The following applies: HUVECs, SMCs, CT-26 cells, HEK-293 cells. The series is classed as cell-based.
From the text: as §1

Values after ≈ are worked out from the molar mass of the structure shown. Values joined by “and” are separate entries in the source; they are usually repeats but may differ in a detail not shown here. Identical values can stand only once. Like-named read-outs stand apart in the source and are kept apart here. Where a SMILES comes first, the peptide text is derived from it.

A word on the half-life: it is the time in which the quantity being followed falls by half. In general, Kd refers to the equilibrium constant for the complex coming apart. One may read the fraction unbound as free concentration divided by total concentration. Low values mean extensive binding, high ones weak binding. As a reminder, the IC50 is the midpoint of a concentration-inhibition curve. Lower therefore signals greater potency.

Furin, sequence (P09958 108-794, species assumed): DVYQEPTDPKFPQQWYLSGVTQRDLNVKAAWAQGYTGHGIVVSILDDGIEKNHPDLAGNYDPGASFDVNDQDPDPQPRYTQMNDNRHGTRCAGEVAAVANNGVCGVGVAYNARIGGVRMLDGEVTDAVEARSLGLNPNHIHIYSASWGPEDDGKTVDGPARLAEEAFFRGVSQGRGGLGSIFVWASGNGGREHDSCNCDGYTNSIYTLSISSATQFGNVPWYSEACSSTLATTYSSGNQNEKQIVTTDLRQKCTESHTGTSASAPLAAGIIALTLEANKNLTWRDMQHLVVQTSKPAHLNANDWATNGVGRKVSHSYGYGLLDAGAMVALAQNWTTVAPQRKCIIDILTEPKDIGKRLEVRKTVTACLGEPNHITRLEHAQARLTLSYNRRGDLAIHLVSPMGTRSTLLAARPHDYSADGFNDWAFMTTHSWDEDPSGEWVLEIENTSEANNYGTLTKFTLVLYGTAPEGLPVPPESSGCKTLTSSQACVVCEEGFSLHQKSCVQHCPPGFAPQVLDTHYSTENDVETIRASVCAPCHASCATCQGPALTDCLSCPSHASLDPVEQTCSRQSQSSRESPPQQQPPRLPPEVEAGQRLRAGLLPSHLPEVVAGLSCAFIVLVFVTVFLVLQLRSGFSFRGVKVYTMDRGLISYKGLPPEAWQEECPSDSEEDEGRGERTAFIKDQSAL

In the case of `CSCC[C@H](NC(=O)[C@@H]1CCCN1C(=O)CNC(=O)[C@H](CCCCN)NC(=O)[C@H](Cc1c[nH]cn1)NC(=O)[C@H](CO)NC(=O)[C@H](CC(C)C)NC(=O)[C@H](CCCNC(=N)N)NC(=O)[C@@H]1CCCN1C(=O)[C@H](CCCNC(=N)N)NC(=O)[C@H](CCC(N)=O)NC(=O)[C@H](CO)NC(=O)[C@H](CO)NC(=O)[C@H](Cc1ccccc1)NC(=O)[C@H](CCCCN)NC(=O)[C@H](CO)NC(=O)[C@H](CO)NC(=O)CNC(=O)CNC(=O)[C@H](CCC(N)=O)NC(=O)[C@H](Cc1c[nH]c2ccccc12)NC(=O)[C@@H]1CCCN1C(=O)CNC(=O)[C@@H]1CCCN1C(=O)CNC(=O)[C@H](CC(N)=O)NC(=O)[C@H](CCCNC(=N)N)NC(=O)[C@H](CO)NC(=O)CNC(=O)[C@H](CCCNC(=N)N)NC(=O)[C@@H]1CCCN1C(=O)[C@H](CCC(N)=O)NC(=O)[C@@H](NC(=O)[C@@H](N)CC(C)C)C(C)C)C(=O)N1CCC[C@H]1C(=O)N[C@@H](Cc1ccccc1)C(=O)O` [apelin-dm] (H-LVQPRGSRNGPGPWQGGSSKFSSQRPRLSHKGPMPF-OH), the “Half-life, Mean” value in “in vitro [1]” turned out to be 18.68 h. The compound further came in with a half-life in the series “in vitro [1]” (plasma) of more than 18 h. For the same compound, the “cleavage by Furin” value at Furin was “more stable and not cleaved”. Further, the “half-life in vivo in mice” value in series [2] is 0.333 h. This compound also registered a Kd at apelin receptor [3] of approximately 0.03 nM. Moreover, in the series “in vivo”, the MTD at 336 h is more than 1000 mg/kg. The “% Protein bound, Mean” value in “in vitro [4]” is on record as 54%; in “in vitro [6]” it was 26%. In the series “in vitro [4]” (plasma), this compound returned a fraction unbound of approximately 0.5. In addition, in the series on CT-26 tumors, the “toxicity in treated tumor-bearing mice” value is on record as “no obvious toxicity in treated mice was observed”. For the same compound, the IC50 at apelin receptor [5] is 0.45 nM and 0.47 nM. The “Solubility, Mean” value in series [7] was 187.3 µM (≈ 734 µg/mL). For the same compound, in series [8], the “Intrinsic clearance in liver microsomes” value is given as less than 115.5 µL/min/mg.

Take apelin: the “ERK and AKT activation” value in the series on AKT and ERK was “activated ERK and AKT”.

The values are drawn from PMC11904221 (EMBO Molecular Medicine, 2025).
